Results published in patent publication US20230365558A1, “TETRAHYDROISOQUINOLINE DERIVATIVE AND USE THEREOF” (MEDSHINE DISCOVERY INC., priority 2020, published 2023).
Read-outs that look alike come from different tables or passages of the source. Values belong to the molecule of their own block, whether it stands above or below them.

Tests used:
[1] = tested on: Z-138 non-Hodgkin's lymphoma cells; experiment: In vitro anti-proliferation assay of Z-138 cells (CellTiter-Glo, 6 days); type: cell-based, human; conditions: read-out: IC50 (nM), in vitro anti-proliferative activity on Z-138 tumor cells
Protocol: The plate was incubated at 37° C., CO2 and 100% relative humidity for 6 days. Samples were processed using Promega CellTiter-Glo Luminescent Cell Viability Assay Kit (Promega-G7571) standard method, and the luminescent signal was detected on a TECAN Spark®10M plate reader. Raw data were used to calculate the inhibition rate of the test compounds using the following equation: […]
(§1) The inhibition rates were imported into Excel separately to calculate the inhibition rates of compounds at different concentrations, and then XLfit software was used to plot inhibition curves and calculate relevant parameters, including minimum inhibition rate, maximum inhibition rate and IC50.

[2] = tested on: human mantle cell lymphoma Z-138 cells; conditions: Z-138 xenograft; for T/C (%) (Day 21) / TGI (%) (Day 21): 80 mg/kg PO BID × 21, Day 21; for RTV (Day 21) / Tumor volume (Day 21): 80 mg/kg PO BID × 21, Day 21, Mean ± SEM; for Tumor volume (Day 21) / Tumor volume (Day 0): n = 6; for Tumor volume (Day 0): Day 0 (at grouping), Mean ± SEM
PRMT5 enzyme = PRMT5 enzyme (Homo sapiens (Human), UniProt O14744); experiment: PRMT5 enzyme inhibitory activity assay (LANCE Ultra TR-FRET); type: biochemical
Sequence of PRMT5 enzyme (O14744 whole entry): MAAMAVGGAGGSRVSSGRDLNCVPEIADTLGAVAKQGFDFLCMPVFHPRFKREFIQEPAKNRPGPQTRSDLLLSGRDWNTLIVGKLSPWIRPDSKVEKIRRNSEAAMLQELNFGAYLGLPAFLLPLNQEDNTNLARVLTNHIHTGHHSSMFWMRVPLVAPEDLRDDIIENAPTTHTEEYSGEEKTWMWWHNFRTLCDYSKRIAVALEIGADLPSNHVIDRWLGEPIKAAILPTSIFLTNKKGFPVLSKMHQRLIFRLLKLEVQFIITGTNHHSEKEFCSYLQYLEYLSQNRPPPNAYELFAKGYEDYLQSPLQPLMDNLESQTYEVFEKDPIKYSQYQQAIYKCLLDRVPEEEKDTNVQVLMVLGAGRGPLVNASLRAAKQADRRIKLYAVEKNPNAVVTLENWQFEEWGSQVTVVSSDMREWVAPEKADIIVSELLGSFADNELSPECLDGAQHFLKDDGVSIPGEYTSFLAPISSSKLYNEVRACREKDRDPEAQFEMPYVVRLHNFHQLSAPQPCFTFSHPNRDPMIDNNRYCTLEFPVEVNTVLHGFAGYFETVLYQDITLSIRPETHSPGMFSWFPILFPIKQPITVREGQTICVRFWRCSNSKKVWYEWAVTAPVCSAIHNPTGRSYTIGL
Sequence of PRMT5 enzyme (Q9BQA1 whole entry partner): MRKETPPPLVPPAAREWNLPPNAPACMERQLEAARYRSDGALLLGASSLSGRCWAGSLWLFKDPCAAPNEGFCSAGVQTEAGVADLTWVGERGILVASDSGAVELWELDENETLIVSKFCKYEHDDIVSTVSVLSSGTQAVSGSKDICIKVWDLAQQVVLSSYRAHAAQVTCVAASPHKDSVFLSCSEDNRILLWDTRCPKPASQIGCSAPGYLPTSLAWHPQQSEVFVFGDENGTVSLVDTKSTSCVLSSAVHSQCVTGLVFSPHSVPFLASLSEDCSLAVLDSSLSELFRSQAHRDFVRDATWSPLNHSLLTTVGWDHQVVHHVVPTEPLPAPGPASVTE
Protocol: Experimental objective: To test the inhibitory effect of compounds on PRMT5 enzyme activity
Experimental materials: PRMT5 enzyme
The plate was incubated at 25° C. for 30 min, then added with substrate, and reacted at 25° C. for 90 min. After 90 min, the detection reagent was added to the 384-well plate using PerkinElmer LANCE Ultra TR-FRET standard method to combine with the enzyme-substrate reaction product. […] Raw data were used to calculate the inhibition rate of the test compounds using the following equation: […]
as §1

[3] = tested on: MDA-MB-468 human breast cancer cells; experiment: Anti-proliferative activity on MDA-MB-468 cells (CellTiter-Glo, 7 days); type: cell-based; conditions: read-out: IC50 (nM), in vitro anti-proliferative activity on MDA-MB-468 tumor cells
Protocol: CellTiter-Glo (chemiluminescent cell viability detection reagent, purchased from Promega).
MDA-MB-468 cells were planted in a white 384-well plate with 40 μL of cell suspension per well, which contained 1000 MDA-MB-468 cells. The cell plate was cultured in a CO2 incubator overnight. […] 78 μL of culture medium was added to a middle plate, and then 2 μL of gradient diluted compound per well was transferred to the middle plate according to the corresponding position. After being thoroughly mixed, 10 μL per well was transferred to the cell plate. […] The cell plate was cultured in a CO2 incubator for 7 days. Another cell plate was prepared, and the signal value was read on the day of administration as the maximum value (Max value in the equation below) to participate in data analysis. 10 μL of chemiluminescent cell viability detection reagent per well was added to the cell plate, and the plate was incubated at room temperature for 10 min to stabilize the luminescent signal. A multi-label analyzer was used for reading. After the incubation of the cell plate with the compound was completed, 10 μL of chemiluminescent cell viability detection reagent per well was added to the cell plate, and the plate was incubated at room temperature for 10 min to stabilize the luminescent signal. A multi-label analyzer was used for reading.

[4] = Pharmacokinetic evaluation in CD-1 mice; conditions: CD-1 mice
Protocol: Experimental objective: To study the pharmacokinetic parameters of the compounds in CD-1 mice
Animal experimental design: Male CD-1 mice (28.08 to 29.01 g, 6 to 7 weeks old), purchased from Shanghai Family Planning Research Institute, n=2/group, 4 mice in total; blood collection time points (h): 0.083 (intravenous injection only), 0.25 (intragastric administration only), 0.5, 1, 2, 4, 8, 10 and 24; compound dose by tail vein injection: 1 mg/kg; single dose by intragastric administration: 5 mg/kg; intravenous and intragastric administration vehicles: 20% N,N-dimethylacetamide aqueous solution, 20% hydroxypropyl-β-cyclodextrin aqueous solution, 5% DMSO/50% PEG400/45% water for injection or 10% Solutol/30% PEG400/60% water for injection. All animals had free access to water during the experiment, fasted overnight before administration, and resumed food supply 4 hours after administration. The entire animal experiment complied with the Institutional Animal Care and Use Committee (IACUC) animal welfare.
Sample collection and storage: After administration, approximately 0.03 mL of blood was collected from the saphenous vein of the mouse at each time point into a pre-frozen commercial EDTA-K2 tube, and placed on wet ice until centrifugation. Blood samples were centrifuged at 4° C., 3,200 g for 10 min. Plasma was collected separately, transferred to a pre-labeled 96-well plate, fast frozen on dry ice, and stored at −70±10° C. until LC-MS/MS analysis.
Pre-treatment of plasma samples: 3 μL of unknown, standard curve, QC, diluted QC and single and double blank samples were taken and placed in 1.5 mL tubes, and 60 μL of internal standard solution (internal standard: Labetalol 100 ng/mL acetonitrile solution, double blank with the same volume of pure acetonitrile) was added. The samples were vortexed for at least 15 seconds, and centrifuged at 4° C., 12,000 g for 15 min. 50 μL of the supernatant was taken and placed on a clean 96-well plate, and 200 μL of 70% acetonitrile was added. The plate was vortex at 800 rpm for 10 min, and centrifuged at 4° C., 3,220 g for 5 min. 2.0 μL of the supernatant was taken for LC-MS/MS analysis. 10-fold sample dilution procedure: 2 μL of the sample was added to 18 μL of blank matrix; 2-fold sample dilution procedure: 2 μL of the sample was added to 2 μL of blank matrix. Plasma was processed in the same manner as undiluted samples. The linear range was 4.00 to 6000 nM. Plasma concentrations would be analyzed with Triple Quad 6500 Plus, and pharmacokinetic parameters would be calculated with Phoenix WinNonlin 6.3.

[5] = tested on: human breast cancer MDA-MB-468 cells; experiment: Subcutaneous xenograft tumor BALB/c mouse model of human breast cancer MDA-MB-468 cells; type: in vivo; conditions: MDA-MB-468 xenograft
Protocol: Experimental materials: 6 to 8 weeks old Balb/c female mice
Routine digestion with trypsin-EDTA was performed twice a week for passaging.
Group administration was started when the average tumor volume reached 130 mm^3.

[6] = Hygroscopicity by dynamic vapor sorption (DVS); type: physicochemical; conditions: 25° C./80% RH
Protocol: (3) Dynamic Vapor Sorption (DVS) Method
Detailed DVS instrument information and parameters are shown in Table 5, and the classification of hygroscopicity evaluation is shown in Table 6:
Instrument: SMS DVS intrinsic Dynamic Vapor Sorption. The crystal form A of compound 46a (about 10 mg) was taken and placed in a DVS sample tray for testing.

[7] = injection administration (1 mg/kg)
[8] = 100 mg/kg PO BID × 4 W, Day 28, Mean ± SEM

Compound: O=C(NC[C@H](O)CN1CCc2ccccc2C1)c1cnc2c(c1)NC(=O)C1(CC1)C2 [Compound 39]
IC50 [1]: 12 nM
T/C (%) (Day 21) [2]: 12.1%
TGI (%) (Day 21) [2]: 94.8%
RTV (Day 21) [2]: 1.66 + 0.42
Tumor volume (Day 21) [2]: 179 + 42 mm^3
Tumor volume (Day 0) [2]: 108 ± 7 mm^3
IC50 (PRMT5 enzyme): 34 nM
IC50 [3]: 12 nM
Clearance rate CL [4, 7]: 33.6 mL/min/kg
Concentration integral AUC [4, 7]: 1.214 µM·h
Half-life T1/2 [4, 7]: 33 min
Bioavailability F ([4]; oral administration (5 mg/kg)): 20.0%
Concentration integral AUC ([4]; oral administration (5 mg/kg)): 1.208 µM·h

IC50 ([1]; Homo sapiens, Z-138, 144 h): 11 nM
IC50 (PRMT5 enzyme): 58 nM
IC50 ([3]; Homo sapiens, 168 h): 5 nM
Compound: C[C@H](NC(=O)c1cnc2c(c1)NC(=O)C1(CC1)O2)[C@H](O)CN1CCc2ccccc2C1 [Compound 46a]
T/C (%) ([5]; 100 mg/kg PO BID × 4 W, Day 28): 33.29%
TGI (%) ([5]; 100 mg/kg PO BID × 4 W, Day 28): 107.01%
RTV (Day 28) [5, 8]: 0.88 ± 0.06
Tumor volume (Day 28) [5, 8]: 115 ± 13.8 mm^3
Tumor volume (Day 0) ([5]; Day 0 (at grouping), Mean ± SEM): 130 ± 10.5 mm^3
T/C (%) (Day 21) [2]: 1.7%
TGI (%) (Day 21) [2]: 105.8%
RTV (Day 21) [2]: 0.24 + 0.11
Tumor volume (Day 21) [2]: 27 + 13 mm^3
Tumor volume (Day 0) [2]: 107 ± 8 mm^3

Hygroscopicity classification [6]: slightly hygroscopic
moisture absorption weight gain ΔW % [6]: 0.8%
Compound: C[C@H](NC(=O)c1cnc2c(c1)NC(=O)C1(CC1)O2)[C@H](O)CN1CCc2ccccc2C1 [crystal form A of compound 46a]
